Where “and” joins values, the source holds several entries; their conditions need not be identical. Equal entries are not always repeated.
Test system: DMS-114 complex spheroids with HUVEC/MSC, growth % test/control
Experiment: Anticancer human tumor DMS-114 cell line growth inhibition [AhR];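 also: spheroids exposed to agents for 7 days before readout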;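 as to viability, T/C: 100% = DMSO vehicle control wells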
Conditions: for viability, T/C: stronger effect = lower value; active = viability on the fitted dose curve at most 10% of control; inactive = the rest
Method in brief: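 Agents were dosed in half-log steps down from roughly clinical Cmax, or from 10 microM where Cmax was unknown, alone and with AhR antagonists. Read-out: percent test/control growth of tumor spheroids containing HUVEC and MSC stromal cells.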

[1] = curve of first compound, second compound 0.1 µM
[2] = curve of first compound, second compound 0.316 µM
[3] = curve of first compound, second compound 1 µM
[4] = curve of first compound, second compound 3.16 µM
[5] = curve of first compound, second compound 10 µM
[6] = second compound 0.1 µM, first compound 0.0316 µM
[7] = second compound 0.1 µM, first compound 0.1 µM
[8] = second compound 0.1 µM, first compound 0.316 µM
[9] = second compound 0.1 µM, first compound 1 µM
[10] = second compound 0.1 µM, first compound 3.16 µM
[11] = second compound 0.1 µM, first compound 10 µM
[12] = second compound 0.316 µM, first compound 0.0316 µM
[13] = second compound 0.316 µM, first compound 0.1 µM
[14] = second compound 0.316 µM, first compound 0.316 µM
[15] = second compound 0.316 µM, first compound 1 µM
[16] = second compound 0.316 µM, first compound 3.16 µM
[17] = second compound 0.316 µM, first compound 10 µM
[18] = second compound 1 µM, first compound 0.0316 µM
[19] = second compound 1 µM, first compound 0.1 µM
[20] = second compound 1 µM, first compound 0.316 µM
[21] = second compound 1 µM, first compound 1 µM
[22] = second compound 1 µM, first compound 3.16 µM
[23] = second compound 1 µM, first compound 10 µM
[24] = second compound 3.16 µM, first compound 0.0316 µM
[25] = second compound 3.16 µM, first compound 0.1 µM
[26] = second compound 3.16 µM, first compound 0.316 µM
[27] = second compound 3.16 µM, first compound 1 µM
[28] = second compound 3.16 µM, first compound 3.16 µM
[29] = second compound 3.16 µM, first compound 10 µM
[30] = second compound 10 µM, first compound 0.0316 µM
[31] = second compound 10 µM, first compound 0.1 µM
[32] = second compound 10 µM, first compound 0.316 µM
[33] = second compound 10 µM, first compound 1 µM
[34] = second compound 10 µM, first compound 3.16 µM
[35] = second compound 10 µM, first compound 10 µM
[36] = second compound 0.1 µM, first compound 0.000949 µM
[37] = second compound 0.1 µM, first compound 0.003 µM
[38] = second compound 0.1 µM, first compound 0.00949 µM
[39] = second compound 0.1 µM, first compound 0.03 µM
[40] = second compound 0.1 µM, first compound 0.0949 µM
[41] = second compound 0.1 µM, first compound 0.3 µM
[42] = second compound 0.316 µM, first compound 0.000949 µM
[43] = second compound 0.316 µM, first compound 0.003 µM
[44] = second compound 0.316 µM, first compound 0.00949 µM
[45] = second compound 0.316 µM, first compound 0.03 µM
[46] = second compound 0.316 µM, first compound 0.0949 µM
[47] = second compound 0.316 µM, first compound 0.3 µM
[48] = second compound 1 µM, first compound 0.000949 µM
[49] = second compound 1 µM, first compound 0.003 µM
[50] = second compound 1 µM, first compound 0.00949 µM
[51] = second compound 1 µM, first compound 0.03 µM
[52] = second compound 1 µM, first compound 0.0949 µM
[53] = second compound 1 µM, first compound 0.3 µM
[54] = second compound 3.16 µM, first compound 0.000949 µM
[55] = second compound 3.16 µM, first compound 0.003 µM
[56] = second compound 3.16 µM, first compound 0.00949 µM
[57] = second compound 3.16 µM, first compound 0.03 µM
[58] = second compound 3.16 µM, first compound 0.0949 µM
[59] = second compound 3.16 µM, first compound 0.3 µM
[60] = second compound 10 µM, first compound 0.000949 µM
[61] = second compound 10 µM, first compound 0.003 µM
[62] = second compound 10 µM, first compound 0.00949 µM
[63] = second compound 10 µM, first compound 0.03 µM
[64] = second compound 10 µM, first compound 0.0949 µM
[65] = second compound 10 µM, first compound 0.3 µM

O=C(c1cc(Cc2n[nH]c(=O)c3ccccc23)ccc1F)N1CCN(C(=O)C2CC2)CC1 + Cc1cncc(-c2nc(NCCc3c[nH]c4ccccc34)c3ncn(C(C)C)c3n2)c1
< 31.6 nM: IC50 [5]
9820 nM: IC50 [2]
> 10000 nM: IC50 [3] | IC50 [4]
9120 nM: IC50 [1]
inactive: viability, T/C [6] 92.1% | viability, T/C [7] 102% | viability, T/C [8] 105% | viability, T/C [9] 98.1% | viability, T/C [10] 91.4% | viability, T/C [11] 46.4% | viability, T/C [12] 108% | viability, T/C [13] 96% | viability, T/C [14] 102% | viability, T/C [15] 102% | viability, T/C [16] 89.4% | viability, T/C [17] 49.1% | viability, T/C [18] 96.7% | viability, T/C [19] 94.4% | viability, T/C [20] 76.1% | viability, T/C [21] 95.2% | viability, T/C [22] 83.7% | viability, T/C [23] 58.3% | viability, T/C [24] 89.9% | viability, T/C [25] 92.2% | viability, T/C [26] 77.9% | viability, T/C [27] 85% | viability, T/C [28] 73.9% | viability, T/C [29] 50.4% | viability, T/C [30] 31.8% | viability, T/C [31] 46.6% | viability, T/C [32] 35.3% | viability, T/C [33] 37% | viability, T/C [34] 27.8% | viability, T/C [35] 22.1%

O=C(C=Cc1cccc(S(=O)(=O)Nc2ccccc2)c1)NO + Cc1ccccc1N=Nc1ccc(NC(=O)c2ccnn2C)c(C)c1
1660 nM: IC50 [4]
1750 nM: IC50 [3]
1850 nM: IC50 [1]
1720 nM: IC50 [2]
inactive: viability, T/C [6] 101% | viability, T/C [7] 101% | viability, T/C [8] 96.1% | viability, T/C [9] 74.5% | viability, T/C [10] 27.4% | viability, T/C [11] 30.3% | viability, T/C [12] 96.6% | viability, T/C [13] 95.2% | viability, T/C [14] 101% | viability, T/C [15] 68.8% | viability, T/C [16] 30.1% | viability, T/C [17] 27.4% | viability, T/C [18] 99% | viability, T/C [19] 102% | viability, T/C [20] 94.7% | viability, T/C [21] 71.1% | viability, T/C [22] 26.4% | viability, T/C [23] 29.1% | viability, T/C [24] 101% | viability, T/C [25] 97.5% | viability, T/C [26] 91.2% | viability, T/C [27] 66% | viability, T/C [28] 28.7% | viability, T/C [29] 28.7% | viability, T/C [30] 88.7% | viability, T/C [31] 96.1% | viability, T/C [32] 86.5% | viability, T/C [33] 65.8% | viability, T/C [34] 29.5% | viability, T/C [35] 29.9%
1670 nM: IC50 [5]

Cc1ccccc1N=Nc1ccc(NC(=O)c2ccnn2C)c(C)c1
inactive: viability, T/C (compound 0.1 µM) 99.4% [middle of 20 runs] | viability, T/C (compound 0.316 µM) 101% [middle of 20 runs] | viability, T/C (compound 1 µM) 97.6% [middle of 20 runs] | viability, T/C (compound 10 µM) 94% [middle of 20 runs]
> 10000 nM: IC50 (compound alone, run of 07/26/2022)

COc1cccc2c1C(=O)c1c(O)c3c(c(O)c1C2=O)CC(O)(C(=O)CO)CC3OC1CC(N)C(O)C(C)O1 (configuration not stated) + Cc1ccccc1N=Nc1ccc(NC(=O)c2ccnn2C)c(C)c1
active: viability, T/C [9] 1.65% | viability, T/C [10] 0.32% | viability, T/C [11] 0.78% | viability, T/C [15] 1.84% | viability, T/C [16] 0.33% | viability, T/C [17] 1.22% | viability, T/C [21] 2.28% | viability, T/C [22] 0.52% | viability, T/C [23] 0.56% | viability, T/C [27] 1.97% | viability, T/C [28] 0.59% | viability, T/C [29] 0.61% | viability, T/C [33] 1.61% | viability, T/C [34] 0.52% | viability, T/C [35] 0.7%
110 nM: IC50 [2]
107 nM: IC50 [3]
104 nM: IC50 [4]
81.6 nM: IC50 [1]
98.4 nM: IC50 [5]
inactive: viability, T/C [6] 71.6% | viability, T/C [7] 44.9% | viability, T/C [8] 17.1% | viability, T/C [12] 75.5% | viability, T/C [13] 52.5% | viability, T/C [14] 19.4% | viability, T/C [18] 71.4% | viability, T/C [19] 51.8% | viability, T/C [20] 18.3% | viability, T/C [24] 71% | viability, T/C [25] 50.7% | viability, T/C [26] 19.3% | viability, T/C [30] 68.7% | viability, T/C [31] 48.8% | viability, T/C [32] 21.6%

COc1ccc([C@@H](O)c2cc(-c3ncnc4cc(N5CCOCC5)ccc34)c(F)cc2Cl)nn1
> 10000 nM: IC50 (curve of compound)
inactive: viability, T/C (compound 0.0316 µM) 104% and 102% and 101% | viability, T/C (compound 0.1 µM) 107% and 101% and 103% | viability, T/C (compound 0.316 µM) 96.9% and 107% and 112% | viability, T/C (compound 1 µM) 97.4% and 114% and 94.8% | viability, T/C (compound 3.16 µM) 102% and 110% and 95.2% | viability, T/C (compound 10 µM) 56% and 96.2% and 56.6%

CC(C)CC(NC(=O)C(Cc1ccccc1)NC(=O)c1cnccn1)B(O)O (configuration not stated) + Cc1ccccc1N=Nc1ccc(NC(=O)c2ccnn2C)c(C)c1
6.01 nM: IC50 [2]
inactive: viability, T/C [36] 90.3% | viability, T/C [37] 93.9% | viability, T/C [38] 12.1% | viability, T/C [42] 101% | viability, T/C [43] 99.9% | viability, T/C [44] 17.2% | viability, T/C [48] 94.7% | viability, T/C [49] 94.6% | viability, T/C [50] 18.1% | viability, T/C [54] 89.9% | viability, T/C [55] 97.8% | viability, T/C [56] 23.4% | viability, T/C [60] 94.3% | viability, T/C [61] 88.7% | viability, T/C [62] 17.1%
6.14 nM: IC50 [4]
5.59 nM: IC50 [5]
5.5 nM: IC50 [1]
5.87 nM: IC50 [3]
active: viability, T/C [39] 0.2% | viability, T/C [40] 0.1% | viability, T/C [41] 0.22% | viability, T/C [45] 0.18% | viability, T/C [46] 0.05% | viability, T/C [47] 0.48% | viability, T/C [51] 0.41% | viability, T/C [52] 0.28% | viability, T/C [53] 0.18% | viability, T/C [57] 0.28% | viability, T/C [58] 1.08% | viability, T/C [59] 0.24% | viability, T/C [63] 0.65% | viability, T/C [64] 0.6% | viability, T/C [65] 0.32%

Nc1ncn(C2CC(O)C(CO)S2)c(=O)n1 (configuration not stated) + Cc1cncc(-c2nc(NCCc3c[nH]c4ccccc34)c3ncn(C(C)C)c3n2)c1
219 nM: IC50 [2]
293 nM: IC50 [4]
43.8 nM: IC50 [5]
222 nM: IC50 [1]
294 nM: IC50 [3]
inactive: viability, T/C [36] 101% | viability, T/C [37] 110% | viability, T/C [38] 80.4% | viability, T/C [39] 93.2% | viability, T/C [40] 57.6% | viability, T/C [41] 46.8% | viability, T/C [42] 86.7% | viability, T/C [43] 97.1% | viability, T/C [44] 92.2% | viability, T/C [45] 84% | viability, T/C [46] 59.2% | viability, T/C [47] 46.5% | viability, T/C [48] 87.7% | viability, T/C [49] 95.7% | viability, T/C [50] 99.5% | viability, T/C [51] 80.1% | viability, T/C [52] 73% | viability, T/C [53] 49.3% | viability, T/C [54] 102% | viability, T/C [55] 98.6% | viability, T/C [56] 93.2% | viability, T/C [57] 94.5% | viability, T/C [58] 58.7% | viability, T/C [59] 49.5% | viability, T/C [60] 57% | viability, T/C [61] 51.4% | viability, T/C [62] 55.5% | viability, T/C [63] 54.7% | viability, T/C [64] 43.7% | viability, T/C [65] 37.7%

Reference: PubChem BioAssay AID1919008 (Molecular Pharmacology Branch, DTP, NCI, 2023)
